Results published in US20090221538A1, “METHODS OF TREATING MULTIPLE SCLEROSIS BY ADMINISTERING PULSE DOSE CALCITRIOL” (priority 2008, published 2009).
Values joined by “and” are separate entries in the source; they are usually repeats but may differ in a detail not shown here. Equal entries are not always repeated. Marks after values point to notes of the source that are not given here.

Key:
[1] = tested on: B10.PL mice with acute EAE; experiment: Treatment of MBP-induced acute EAE in B10.PL mice, daily clinical EAE disability score; format: in vivo; design: key to cumulative disability (sum of daily disability scores; mean) / Cumulative disability / EAE severity (initial) / Remission (minimum) / EAE severity (final) / EAE severity (decrease): EAE score 0 = normal to 5 = moribund; cumulative = sum of daily scores; conditions: for EAE severity (initial): score at randomization
Description: Breeding pairs of B10.PL-H2^uH2-T18^a/(73NS)/SnJ (hereafter B10.PL) mice were purchased from the Jackson Laboratory (Bar Harbor, Me.). The experimental B10.PL mice were either bred in the pathogen-free mouse colony at the University of Wisconsin Department of Biochemistry, or purchased from the Jackson Laboratory. Mice were housed at 23° C. with 40-60% humidity, 12 hr light-dark cycles, and ad libidum access to water. Unless stated otherwise, the mice were fed Lab Diet #5008 (PMI Nutrition International, Inc., Brentwood, Mo.) containing 0.33 μg/d vitamin D3 and 1% calcium. Experiments used male and female mice aged 6-8 wks (age- and sex-matched within experiments). The University of Wisconsin College of Agricultural and Life Sciences Institutional Animal Care and Use Committee approved all of the experimental protocols.
Bovine myelin basic protein (Sigma Chemical Co., St. Louis, Mo.) was dissolved at 2 mg/mL in 0.1 N acetic acid and emulsified with Complete Freund's adjuvant containing heat-killed Mycobacterium tuberculosis H37 Ra solution (Difco). Each mouse was injected subcutaneously with 0.1 mL emulsion in each hind flank (400 micrograms of MBP per mouse). On the day of immunization and again 2 days later, 200 nanograms of pertussis toxin was injected into the peritoneum. Thereafter, clinical EAE signs were scored daily as follows: 0, normal; 1, limp tail; 1.5, partial paralysis of one hind limb; 2, partial paralysis of both hind limbs; 2.5 partial paralysis of one hind limb and complete paralysis of one hind limb; 3, paralysis of both hind limbs; 4, hind and fore limb paralysis; 5, moribund.
(§1) The vitamin D3 and 1,25-(OH)2D3 were obtained from Sigma Chemical Co. The vitamin D3 was dissolved in safflower oil and stored in the dark at 5° C. The 1,25-(OH)2D3 was dissolved in 100% ethanol (1 mg/mL) and stored in the dark under nitrogen gas at −20° C. The concentration of 1,25-(OH)2D3 was determined by spectral analysis. Animals with stage 2.3±0.3 were randomized into treatment groups. The details of the treatments are given in the figure legends and table footnotes. The synthetic diet used in some experiments was formulated to contain all essential nutrients except vitamin D3 and was prepared exactly as we described (Spach and Hayes, 2005, J. Immunol. 175:4119-4126). For experiments using supplementary vitamin D3, the placebo group was fed the synthetic diet ad libidum without added vitamin D3, whereas the vitamin D3-supplemented group was fed the synthetic diet ad libidum with vitamin D3 added in an amount to provide 1 μg/d, calculated based on a daily measured consumption of 4.0 g dry weight of diet per mouse. Fresh synthetic diet was provided three times per week. At several times during the study, mice were weighed and blood samples were obtained from the tail vein. At the conclusion of the study, the mice were euthanized, a blood sample was obtained, perfusion was done, and the spinal cords and optic nerves were removed. The spinal cords were flash frozen with liquid nitrogen and stored at −70° C. prior to 1,25-(OH)2D3 extraction. Alternatively, the spinal cords were divided into 6 equal sections, aligned vertically, snap frozen in O.C.T. compound (Sakura Finetek USA, Torrance, Calif.) and stored at −70° C. for histopathology. The blood was clotted, centrifuged, and the decanted serum was frozen at −70° C. prior to analysis.
Individual mice were analyzed and the mean and SD were calculated for each group of mice. Experiments were repeated at least once. The significance of differences between the group means was determined using the Mann-Whitney test (n≦16), Student's t-test (n>16), or Chi-squared test (binomial data); p<0.05 was considered significant.

[2] = Spinal cord 1,25-(OH)2D3 extraction and radioimmunoassay; format: in vivo, mouse; conditions: 200 ng 1,25-(OH)2D3 pulse dose plus vitamin D3 supplementation; end of the study
Description: as §1, with “The spinal cords were flash frozen with liquid nitrogen and stored at −70° C. prior to 1,25-(OH)2D3 extraction. Alternatively, the spinal cords were divided into 6 equal sections, aligned vertically, snap frozen in O.C.T. compound (Sakura Finetek USA, Torrance, Calif.) and stored at −70° C. for histopathology. The blood was clotted, centrifuged, and the decanted serum was frozen at −70° C. prior to analysis.” left out

[3] = female B10.PL mice, chow-fed, 20 ng pulse dose, 14 days post treatment
[4] = female B10.PL mice, chow-fed, 200 ng injected once each week, 21 days
[5] = female B10.PL mice, chow-fed, 200 ng injected once, 21 days post treatment
[6] = female B10.PL mice, chow-fed, 200 ng pulse dose, 14 days post treatment
[7] = female B10.PL mice, chow-fed, 400 ng pulse dose, 14 days post treatment
[8] = female and male B10.PL mice, chow-fed, 0.5 (female) or 1.0 (male) nmol injected once, 14 days post treatment
[9] = male B10.PL mice, chow-fed, 20 ng pulse dose, 14 days post treatment
[10] = male B10.PL mice, chow-fed, 40 ng pulse dose, 14 days post treatment
[11] = male B10.PL mice, chow-fed, 200 ng pulse dose, 14 days post treatment
[12] = male B10.PL mice, chow-fed, 400 ng pulse dose, 14 days post treatment
[13] = male and female B10.PL mice, 200 ng 1,25-(OH)2D3 injected, 5 μg vitamin D3 gavage 24 hr later, diet 1 μg/d vitamin D3
[14] = methyl-prednisolone 200 μg/d followed by one 1,25-(OH)2D3 treatment, 28-day observation period

Compound: C=C1/C(=C\C=C2/CCC[C@]3(C)[C@@H]([C@H](C)CCCC(C)(C)O)CC[C@@H]23)C[C@@H](O)C[C@@H]1O [1,25-(OH)2D3, 1,25-dihydroxy vitamin D3]
- relative potency for the treatment of acute EAE disability ([1]; 0.5 nmol (females) or 1.0 nmol (males), compared with methyl-prednisolone): far superior to methyl-prednisolone
- reduction of cumulative disability ([1]; 200 ng 1,25-(OH)2D3 pulse dose plus vitamin D3 (serum 25-(OH)D3 82±27), 42 day observation period): 48%
- cumulative disability lower than the placebo group ([1]; chow-fed mice with acute EAE, weekly injections of 200 ng): 43%
- EAE severity (decrease) [1, 3]: 0.5 ± 1.0
- EAE severity (final) [1, 3]: 1.6 ± 1.0
- Remission (%) [1, 3]: 75%
- Remission (days in) [1, 3]: 8.0 ± 6.3 days
- Remission (days to) [1, 3]: 2.0 ± 0.0 days
- EAE severity (initial) ([1]; female B10.PL mice, chow-fed, 20 ng pulse dose): 2.1 ± 0.1
- Cumulative disability ([1]; female B10.PL mice, chow-fed, 20 ng pulse dose, sum of daily scores for 14 days): 22.1 ± 9.0
- EAE severity (peak) [1, 4]: 2.4 ± 0.4
- Remission [1, 4]: 15.7 ± 3.4 days
- Remission (%) [1, 4]: 100%
- Remission (minimum) [1, 4]: 1.0 ± 0.0
- EAE severity (initial) ([1]; female B10.PL mice, chow-fed, 200 ng injected once each week): 2.3 ± 0.5
- Cumulative disability ([1]; female B10.PL mice, chow-fed, 200 ng injected once each week, sum of daily scores for 21 days): 31.6 ± 5.1
- EAE severity (peak) [1, 5]: 2.7 ± 0.4
- Remission [1, 5]: 13.4 ± 3.9 days
- Remission (minimum) [1, 5]: 1.0 ± 0.4
- Remission (%) ([1]; female B10.PL mice, chow-fed, 200 ng injected once, 21 days post treatment, remission = score ≦1.5 for two or more consecutive days): 100%
- EAE severity (initial) ([1]; female B10.PL mice, chow-fed, 200 ng injected once): 2.6 ± 0.4
- Cumulative disability ([1]; female B10.PL mice, chow-fed, 200 ng injected once, sum of daily clinical scores for 21 days): 32.9 ± 9.3
- EAE severity (decrease) [1, 6]: 1.6 ± 0.4
- EAE severity (final) [1, 6]: 1.0 ± 0.4
- Remission (%) [1, 6]: 100%
- Remission (days in) [1, 6]: 9.2 ± 2.5 days
- Remission (days to) [1, 6]: 5.8 ± 2.5 days
- EAE severity (initial) ([1]; female B10.PL mice, chow-fed, 200 ng pulse dose): 2.6 ± 0.4
- Cumulative disability ([1]; female B10.PL mice, chow-fed, 200 ng pulse dose, sum of daily scores for 14 days): 21.8 ± 4.6
- EAE severity (decrease) [1, 7]: 1.2 ± 0.2
- EAE severity (final) [1, 7]: 1.0 ± 0.0
- Remission (%) [1, 7]: 100%
- Remission (days in) [1, 7]: 9.6 ± 3.0 days
- Remission (days to) [1, 7]: 6.2 ± 3.3 days
- EAE severity (initial) ([1]; female B10.PL mice, chow-fed, 400 ng pulse dose): 2.2 ± 0.2
- Cumulative disability ([1]; female B10.PL mice, chow-fed, 400 ng pulse dose, sum of daily scores for 14 days): 20.6 ± 5.2
- Cumulative disability [1, 8]: 19.7 ± 4.4
- EAE severity (decrease) [1, 8]: 1.2 ± 0.6
- Remission (%) [1, 8]: 92%
- Remission (days in) [1, 8]: 10.0 ± 2.2 days
- Remission (days to) [1, 8]: 4.9 ± 2.2 days
- EAE severity (initial) ([1]; female and male B10.PL mice, chow-fed, 0.5 (female) or 1.0 (male) nmol of steroid compound injected once): 2.3 ± 0.4
- effectiveness for the treatment of EAE ([1]; female mice, chow-fed, 20 ng pulse dose): partially effective
- remission lasted an average of, before a relapse occurred ([1]; female mice, chow-fed, 200 ng pulse dose): 14 days
- mice that achieved a remission (EAE≦1.5 for at least two consecutive days) ([1]; female mice, chow-fed, 200 ng pulse dose, within 6 days): 100%
- EAE severity (decrease) [1, 9]: 0.7 ± 0.4
- EAE severity (final) [1, 9]: 1.4 ± 0.5
- Remission (%) [1, 9]: 80%
- Remission (days in) [1, 9]: 6.6 ± 4.6 days
- Remission (days to) [1, 9]: 6.3 ± 2.2 days
- EAE severity (initial) ([1]; male B10.PL mice, chow-fed, 20 ng pulse dose): 2.1 ± 0.2
- Cumulative disability ([1]; male B10.PL mice, chow-fed, 20 ng pulse dose, sum of daily scores for 14 days): 24.2 ± 6.2
- EAE severity (decrease) [1, 10]: 0.5 ± 1.2
- EAE severity (final) [1, 10]: 1.7 ± 1.0
- Remission (%) [1, 10]: 80%
- Remission (days in) [1, 10]: 8.0 ± 4.6 days
- Remission (days to) [1, 10]: 4.5 ± 1.7 days
- EAE severity (initial) ([1]; male B10.PL mice, chow-fed, 40 ng pulse dose): 2.2 ± 0.4
- Cumulative disability ([1]; male B10.PL mice, chow-fed, 40 ng pulse dose, sum of daily scores for 14 days): 25.0 ± 9.0
- EAE severity (decrease) [1, 11]: 1.0 ± 0.4
- EAE severity (final) [1, 11]: 1.3 ± 0.4
- Remission (%) [1, 11]: 100%
- Remission (days in) [1, 11]: 11.9 ± 2.0 days
- Remission (days to) [1, 11]: 6.3 ± 2.4 days
- EAE severity (initial) ([1]; male B10.PL mice, chow-fed, 200 ng pulse dose): 2.3 ± 0.3
- Cumulative disability ([1]; male B10.PL mice, chow-fed, 200 ng pulse dose, sum of daily scores for 14 days): 22.1 ± 3.5
- EAE severity (decrease) [1, 12]: 1.2 ± 0.2
- EAE severity (final) [1, 12]: 0.8 ± 0.3
- Remission (%) [1, 12]: 86%
- Remission (days in) [1, 12]: 11.0 ± 1.4 days
- Remission (days to) [1, 12]: 4.2 ± 1.7 days
- EAE severity (initial) ([1]; male B10.PL mice, chow-fed, 400 ng pulse dose): 2.1 ± 0.4
- Cumulative disability ([1]; male B10.PL mice, chow-fed, 400 ng pulse dose, sum of daily scores for 14 days): 16.9 ± 2.5
- Remission [1, 13]: 36 ± 6 days
- Remission (%) [1, 13]: 100* %
- mortality [1, 13]: 0%
- Cumulative disability ([1]; male and female B10.PL mice, 200 ng 1,25-(OH)2D3 injected, 5 μg vitamin D3 gavage, diet 1 μg/d vitamin D3, sum of daily scores for first 42 days post treatment): 50 ± 14
- Cumulative disability [1, 14]: 36±10
- reduction of cumulative disability vs placebo group [1, 14]: 42%
- amelioration of EAE disease ([1]; mice with normal serum 25-(OH)D3 levels, 200 ng pulse dose in females and 400 ng pulse dose in males): optimally ameliorated EAE disease
- mice that did not relapse ([1]; one 1,25-(OH)2D3 treatment (females 200 ng; males 400 ng) after withdrawal of 200 μg/d methyl-prednisolone, 28-day observation period): 4 of 6
- days in remission before relapse (remaining two mice) ([1]; one 1,25-(OH)2D3 treatment (females 200 ng; males 400 ng) after withdrawal of methyl-prednisolone): 14 days and 23 days
- 1,25-(OH)3D3 in the spinal cord [2]: 18.8 ± 6.6 pmol/mL
